From patent US5609872A, “Peptides comprising a protective epitope from blood stages of plasmodium falciparum” (priority 1990, dated 1997)
Ends that are not written are not given here.

Test system: binding of mAb 33G2 to Pf11/RESA
Assay: not given
Conditions: peptide mixed with a fixed concentration of the mAb; up to 200 μg/ml tested; cited from earlier work

Row | Substance | peptide concentration giving complete inhibition of mAb 33G2 immunofluorescence [µg/mL]
1 | (EEVVEEVVP)2: synthetic peptide corresponding to repeated sequence in antigen Pf11.1 (also: dimer of the repeat (EEVVEEVVP)2) | 100
2 | Y (SVTEEIAEEDK)2: peptide corresponding to a dimer of amino acids 2-12 in antigen Ag332 (YSVTEEIAEEDK; also: dimer of the peptide) | 0.2

Test system: mAb 33G2
Assay: PEPSCAN ELISA of rod-bound peptides with mAb 33G2
Type: binding, human
Conditions: culture supernatant with mAb 33G2 (approx. 10 μg/ml) diluted 1:100; N-acetylated peptides on rods
Procedure: The detailed epitope specificity on the single amino acid level for the mAb 33G2 was performed using the multiple peptide synthesis technique (PEPSCAN) developed by Geysen et al. (J. Immunol. Methods 102, 259-274, 1987). Peptides were synthesized on polyethylene rods on which polymers of polyacrylic acid had been formed by […]. Polyethylene rods and Pmoc L-amino acids performed as active esthers (Cambridge Research Biochemicals, UK) were used for synthesis according to instructions of the manufacturer. The N-terminals of all peptides were acetylated. As a basis for the mAb 33G2 epitope analysis, the sequence of amino acid residues 1-19 [SEQ ID NO.: 15] (ESVTEEIAEEDKSVIEEAV) of Ag332 (Mattei, D., Berzins, K., Wahlgren, M., Udomsangpetch, R., Perlmann, P., Griesser, H. W., Scherf, A., M uller-Hill, B., Bonnefoy, S., Guillotte, M., Langsley, G., Pereira da Silva, L. and Mercereau-Puijalon, O. (1989) Cross-reactive antigenic determinants present on different Plasmodium falciparum blood-stage antigens. Parasite Immunol. 11, 15-30) was used, containing sequences of the peptides with the highest reactivity with the mAb (Udomsangpetch, R., Carlsson, J., W ahlin, B., Holmquist, G., Ozaki, L. S., Scherf, A., Mattei, D., Mercereau-Puijalon, O., Uni, S., Aikawa, M., Berzins, K. and Perlmann, P. (1989) Reactivity of the human monoclonal antibody 33G2 with repeated sequences of three distinct Plasmodium falciparum antigens. J. Immunol. 142, 3620-3626). All possible overlapping heptapeptides, hexpeptides, pentapeptides and tetrapeptides covering the mentioned sequence were synthesized and their reactivity with mAb 33G2 was analysed by ELISA as described by Geysen et al. (J. Immunol. Methods 102, 259-274, 1987). Culture supernatant containing mAb 33G2 (approx. 10 μg/ml), was diluted 1:100. Peptide containing rods were washed in phosphate-buffered saline with 0.05% Tween 20 between all steps in ELISA. Bound antibodies were detected with a rabbit antihuman IgM-alkaline phosphatase conjugate (Sigma, St. Louis, Mo.) using p-nitrophenyl phosphate, disodium salt (Sigma) as substrate.

Row | Substance | reactivity with mAb 33G2 in ELISA (absorbance at 405 nm), in words
3 | ESVTEEI [glu-ser-val-thr-glu-glu-ile, heptapeptide, amino acids 1-7 of Ag332] | showed reactivity
4 | IADEV: pentapeptide epitope analog of residue 3-7 of Ag332 | recognized
5 | LVEEV: pentapeptide epitope analog of residue 3-7 of Ag332 | recognized
6 | SVTEEIA [ser-val-thr-glu-glu-ile-ala, heptapeptide, amino acids 2-8 of Ag332] | showed reactivity
7 | TEEIAEE [thr-glu-glu-ile-ala-glu-glu, heptapeptide, amino acids 4-10 of Ag332] | showed reactivity
8 | VTEEIAE [val-thr-glu-glu-ile-ala-glu, heptapeptide, amino acids 3-9 of Ag332] | showed reactivity
9 | VVEEV: pentapeptide epitope analog of residue 3-7 of Ag332; printed as SEQ ID NO.:19 (LVEEV) | recognized
10 | YLDEV: pentapeptide epitope analog of residue 3-7 of Ag332 | did not react
11 | ile-ala-asp-glu-ile (IADEI) | recognized
12 | ile-thr-glu-glu-ile (ITEEI) | recognized
13 | ser-val-thr-glu-glu-ile (SVTEEI) [hexapeptide, amino acids 2-7 of Ag332] | recognized
14 | thr-glu-glu-ile-ala-glu (TEEIAE) [hexapeptide, amino acids 4-9 of Ag332] | recognized
15 | val-ala-glu-glu-ile (VAEEI) | recognized
16 | val-thr-glu-glu-ile-ala (VTEEIA) [hexapeptide, amino acids 3-8 of Ag332] | recognized
